Calls of active or inactive are those of the source. The rule behind the calls is not given here.
Test system: CCRIS mutagenicity, Ames/micronucleus/aberration tests
Assay: CCRIS mutagenicity studies
Excerpt: The CCRIS database contains chemical records with carcinogenicity, mutagenicity, tumor promotion, and tumor inhibition test results. It was developed by the National Cancer Institute (NCI). Data are derived from studies cited in primary journals, current awareness tools, NCI reports, and other sources. Test results have been reviewed by experts in carcinogenesis and mutagenesis.
CCRIS provides historical information from the years 1985 - 2011. It is no longer updated.
This is an archive assay for CCRIS mutagenicity studies.

[1] = Test System: AMES SALMONELLA TYPHIMURIUM, Strain/Indicator: TA98, Metabolic Activation: NONE, Method: PREINCUBATION
[2] = Test System: AMES SALMONELLA TYPHIMURIUM, Strain/Indicator: TA100, Metabolic Activation: NONE, Method: PREINCUBATION
[3] = Test System: AMES SALMONELLA TYPHIMURIUM, Strain/Indicator: TA100, Metabolic Activation: NONE, Method: STANDARD PLATE
[4] = Test System: AMES SALMONELLA TYPHIMURIUM, Strain/Indicator: TA1535, Metabolic Activation: NONE, Method: PREINCUBATION
[5] = Test System: AMES SALMONELLA TYPHIMURIUM, Strain/Indicator: TA1537, Metabolic Activation: NONE, Method: PREINCUBATION

OCC1CO1 (stereo not drawn) was tested, and the mutagenic call (End Point: IN VITRO CHROMOSOMAL ABERRATIONS, Test System: CHL CELLS, Metabolic Activation: NONE) was “active; positive (structural changes)”, the mutagenic call (End Point: IN VITRO CHROMOSOMAL ABERRATIONS, Test System: CHL CELLS, Metabolic Activation: RAT, LIVER, S-9, SODIUM PHENOBARBITAL AND 5,6-BENZOFLAVONE) was “active; positive (structural changes)” and the mutagenic call (Test System: AMES SALMONELLA TYPHIMURIUM, Strain/Indicator: TA97, Metabolic Activation: HAMSTER, LIVER, S-9, AROCLOR 1254, Method: PREINCUBATION) was “active; positive”. For the same compound, the mutagenic call (Test System: AMES SALMONELLA TYPHIMURIUM, Strain/Indicator: TA97, Metabolic Activation: NONE, Method: PREINCUBATION) was “active; positive”, the mutagenic call (Test System: AMES SALMONELLA TYPHIMURIUM, Strain/Indicator: TA97, Metabolic Activation: RAT, LIVER, S-9, AROCLOR 1254, Method: PREINCUBATION) was “active; positive” and the mutagenic call (Test System: AMES SALMONELLA TYPHIMURIUM, Strain/Indicator: TA98, Metabolic Activation: HAMSTER, LIVER, S-9, AROCLOR 1254, Method: PREINCUBATION) was “active; positive”. For the same compound, the mutagenic call [1] was “active; positive”, the mutagenic call (Test System: AMES SALMONELLA TYPHIMURIUM, Strain/Indicator: TA98, Metabolic Activation: RAT, LIVER, S-9, AROCLOR 1254, Method: PREINCUBATION) was “active; positive” and the mutagenic call (Test System: AMES SALMONELLA TYPHIMURIUM, Strain/Indicator: TA100, Metabolic Activation: HAMSTER, LIVER, S-9, AROCLOR 1254, Method: PREINCUBATION) was “active; positive”. For the same compound, the mutagenic call [2] was “active; positive”, the mutagenic call [3] was “active; positive” and the mutagenic call (Test System: AMES SALMONELLA TYPHIMURIUM, Strain/Indicator: TA100, Metabolic Activation: RAT, LIVER, S-9, AROCLOR 1254, Method: PREINCUBATION) was “active; positive”. The mutagenic call (Test System: AMES SALMONELLA TYPHIMURIUM, Strain/Indicator: TA100, Metabolic Activation: RAT, LIVER, S-9, AROCLOR 1254, Method: STANDARD PLATE) was “active; positive”, the mutagenic call (Test System: AMES SALMONELLA TYPHIMURIUM, Strain/Indicator: TA100, Metabolic Activation: RAT, LIVER, S-9, PCB, Method: PREINCUBATION) was “active; positive” and the mutagenic call (Test System: AMES SALMONELLA TYPHIMURIUM, Strain/Indicator: TA1535, Metabolic Activation: HAMSTER, LIVER, S-9, AROCLOR 1254, Method: PREINCUBATION) was “active; positive”. The mutagenic call [4] was “active; positive”, the mutagenic call (Test System: AMES SALMONELLA TYPHIMURIUM, Strain/Indicator: TA1535, Metabolic Activation: NONE, Method: STANDARD PLATE) was “active; positive” and the mutagenic call (Test System: AMES SALMONELLA TYPHIMURIUM, Strain/Indicator: TA1535, Metabolic Activation: RAT, LIVER, S-9, AROCLOR 1254, Method: PREINCUBATION) was “active; positive”. For the same compound, the mutagenic call (Test System: AMES SALMONELLA TYPHIMURIUM, Strain/Indicator: TA1537, Metabolic Activation: HAMSTER, LIVER, S-9, AROCLOR 1254, Method: PREINCUBATION) was “active; positive”, the mutagenic call [5] was “active; positive” and the mutagenic call (Test System: AMES SALMONELLA TYPHIMURIUM, Strain/Indicator: TA1537, Metabolic Activation: RAT, LIVER, S-9, AROCLOR 1254, Method: PREINCUBATION) was “active; positive”. For the same compound, the mutagenic call (Test System: Ames Salmonella typhimurium, Strain/Indicator: TA98, Metabolic Activation: None, Method: Preincubation) was “active; positive”, the mutagenic call (Test System: Ames Salmonella typhimurium, Strain/Indicator: TA98, Metabolic Activation: Rat, Liver, S9, Sodium phenobarbital and 5,6-benzoflavone (10%), Method: Preincubation) was “active; positive” and the mutagenic call (Test System: Ames Salmonella typhimurium, Strain/Indicator: TA100, Metabolic Activation: None, Method: Preincubation) was “active; positive”. For the same compound, the mutagenic call (Test System: Ames Salmonella typhimurium, Strain/Indicator: TA100, Metabolic Activation: Rat, Liver, S9, Sodium phenobarbital and 5,6-benzoflavone (10%), Method: Preincubation) was “active; positive”, the mutagenic call (Test System: Ames Salmonella typhimurium, Strain/Indicator: TA1535, Metabolic Activation: None, Method: Preincubation) was “active; positive” and the mutagenic call (Test System: Ames Salmonella typhimurium, Strain/Indicator: TA1535, Metabolic Activation: Rat, Liver, S9, Sodium phenobarbital and 5,6-benzoflavone (10%), Method: Preincubation) was “active; positive”. For the same compound, the mutagenic call (Test System: Ames Salmonella typhimurium, Strain/Indicator: TA1537, Metabolic Activation: None, Method: Preincubation) was “active; positive”, the mutagenic call (Test System: Ames Salmonella typhimurium, Strain/Indicator: TA1537, Metabolic Activation: Rat, Liver, S9, Sodium phenobarbital and 5,6-benzoflavone (10%), Method: Preincubation) was “inactive; negative” and the mutagenic call (Test System: CHINESE HAMSTER V-79, Strain/Indicator: V-79/6-THIOGUANINE, Metabolic Activation: NONE) was “active; positive”. For the same compound, the mutagenic call (Test System: E. coli, Strain/Indicator: WP2uvrA/pKM101, Metabolic Activation: None, Method: Preincubation) was “active; positive”, the mutagenic call (Test System: E. coli, Strain/Indicator: WP2uvrA/pKM101, Metabolic Activation: Rat, Liver, S9, Sodium phenobarbital and 5,6-benzoflavone (10%), Method: Preincubation) was “active; positive” and the mutagenic call (Test System: MOUSE LYMPHOMA, Strain/Indicator: L5178Y (TK+/TK-), Metabolic Activation: NONE, Method: SUSPENSION/PLATE) was “active; positive”.
Nc1c2ccccc2nc2ccc(O)cc12 was tested, and the mutagenic call [5] was “active; positive”.
CCCCCCNC(=O)n1cc(F)c(=O)[nH]c1=O was tested, and the mutagenic call (Test System: AMES SALMONELLA TYPHIMURIUM, Strain/Indicator: TA98, Metabolic Activation: S-9, Method: STANDARD PLATE) was “inactive; negative”, the mutagenic call [3] was “inactive; negative” and the mutagenic call (Test System: AMES SALMONELLA TYPHIMURIUM, Strain/Indicator: TA100, Metabolic Activation: S-9, Method: STANDARD PLATE) was “inactive; negative”. For the same compound, the mutagenic call (Test System: AMES SALMONELLA TYPHIMURIUM, Strain/Indicator: TA102, Metabolic Activation: NONE, Method: STANDARD PLATE) was “inactive; negative”, the mutagenic call (Test System: AMES SALMONELLA TYPHIMURIUM, Strain/Indicator: TA1537, Metabolic Activation: NONE, Method: STANDARD PLATE) was “inactive; negative” and the mutagenic call (Test System: AMES SALMONELLA TYPHIMURIUM, Strain/Indicator: TA1537, Metabolic Activation: S-9, Method: STANDARD PLATE) was “inactive; negative”. The mutagenic call (Test System: E. COLI, Strain/Indicator: WP2 (HCR), Metabolic Activation: NONE, Method: STANDARD PLATE) was “inactive; negative” and the mutagenic call (Test System: E. COLI, Strain/Indicator: WP2 (HCR), Metabolic Activation: S-9, Method: STANDARD PLATE) was “inactive; negative”.
For CC(=O)Nc1ccc(S(=O)(=O)Cl)cc1, the mutagenic call [1] was “inactive; negative”, the mutagenic call (Test System: AMES SALMONELLA TYPHIMURIUM, Strain/Indicator: TA98, Metabolic Activation: RAT LIVER S-9, PHENOBARBITAL AND BETA-NAPHTHOFLAVONE, Method: PREINCUBATION) was “inactive; negative” and the mutagenic call [2] was “inactive; negative”. For the same compound, the mutagenic call (Test System: AMES SALMONELLA TYPHIMURIUM, Strain/Indicator: TA100, Metabolic Activation: RAT LIVER S-9, PHENOBARBITAL AND BETA-NAPHTHOFLAVONE, Method: PREINCUBATION) was “inactive; negative”, the mutagenic call (Test System: AMES SALMONELLA TYPHIMURIUM, Strain/Indicator: TA102, Metabolic Activation: NONE, Method: PREINCUBATION) was “inactive; negative” and the mutagenic call (Test System: AMES SALMONELLA TYPHIMURIUM, Strain/Indicator: TA102, Metabolic Activation: RAT LIVER S-9, PHENOBARBITAL AND BETA-NAPHTHOFLAVONE, Method: PREINCUBATION) was “inactive; negative”. For the same compound, the mutagenic call (Test System: AMES SALMONELLA TYPHIMURIUM, Strain/Indicator: TA104, Metabolic Activation: NONE, Method: PREINCUBATION) was “inactive; negative”, the mutagenic call (Test System: AMES SALMONELLA TYPHIMURIUM, Strain/Indicator: TA104, Metabolic Activation: RAT LIVER S-9, PHENOBARBITAL AND BETA-NAPHTHOFLAVONE, Method: PREINCUBATION) was “inactive; negative” and the mutagenic call [4] was “inactive; negative”. The mutagenic call (Test System: AMES SALMONELLA TYPHIMURIUM, Strain/Indicator: TA1535, Metabolic Activation: RAT LIVER S-9, PHENOBARBITAL AND BETA-NAPHTHOFLAVONE, Method: PREINCUBATION) was “inactive; negative”, the mutagenic call [5] was “inactive; negative” and the mutagenic call (Test System: AMES SALMONELLA TYPHIMURIUM, Strain/Indicator: TA1537, Metabolic Activation: RAT LIVER S-9, PHENOBARBITAL AND BETA-NAPHTHOFLAVONE, Method: PREINCUBATION) was “inactive; negative”. The mutagenic call (Test System: E.COLI, Strain/Indicator: WP2UVRA/PKM101, Metabolic Activation: NONE, Method: PREINCUBATION) was “inactive; negative”, the mutagenic call (Test System: E.COLI, Strain/Indicator: WP2UVRA/PKM101, Metabolic Activation: RAT LIVER S-9, PHENOBARBITAL AND BETA-NAPHTHOFLAVONE, Method: PREINCUBATION) was “inactive; negative” and the mutagenic call (Test System: E.COLI, Strain/Indicator: WP2UVRA, Metabolic Activation: NONE, Method: PREINCUBATION) was “inactive; negative”. For the same compound, the mutagenic call (Test System: E.COLI, Strain/Indicator: WP2UVRA, Metabolic Activation: RAT LIVER S-9, PHENOBARBITAL AND BETA-NAPHTHOFLAVONE, Method: PREINCUBATION) was “inactive; negative”.
